Measured values as given in ChEMBL document CHEMBL1201862, “PubChem BioAssay data set” (2004).
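Grown in 96-well plates, cells were treated for 48 hours with each compound at five concentrations. Insufficient inhibition: endpoint recorded as highest concentration tested. GI50 marks 50% less growth.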 Activity calls are given as the source filed them. Rule as the data show it: active = GI50 up to about 1.1 µM and inactive = higher.

Tests used:
Experiment in all cases: DTP human tumour cell line panel, 48 h
[1] = test system: CAKI-1
[2] = test system: CCRF-CEM
[3] = test system: HCT-116
[4] = test system: KM12
[5] = test system: MOLT-4
[6] = test system: OVCAR-4
[7] = test system: OVCAR-5
[8] = test system: RPMI-8226
[9] = test system: SF-268
[10] = test system: SN12C
[11] = test system: SNB-75
[12] = test system: HL-60
[13] = test system: LOX IMVI
[14] = test system: UACC-62
[15] = test system: HOP-92

Measured: GI50

COc1cc2c(cc1OC)C1Cc3ccc(OC)c(OC)c3C[N+]1([O-])CC2 (centres undefined)
inactive: [1] > 100 µM | [2] > 100 µM | [3] > 100 µM | [4] > 100 µM | [5] > 100 µM | [6] > 100 µM | [7] > 100 µM | [8] 74.5 µM | [9] > 100 µM | [10] > 100 µM | [11] > 100 µM

COC1=NCc2ccccc2-c2ccccc21
inactive: [2] > 100 µM | [3] > 100 µM | [12] > 100 µM | [4] > 100 µM | [13] > 100 µM | [5] > 100 µM | [6] > 100 µM | [9] > 100 µM | [10] > 100 µM | [11] > 100 µM | [14] > 100 µM

C=CCn1c(=O)n(CC=C)c(=O)n(CC=C)c1=O
inactive: [2] > 100 µM | [3] > 100 µM | [12] > 100 µM | [15] > 100 µM | [4] > 100 µM | [13] > 100 µM | [5] > 100 µM | [7] > 100 µM | [8] > 100 µM | [9] > 100 µM | [10] > 100 µM | [14] > 100 µM

O=C(n1c2ccccc2c2nnc(S)nc21)C(F)(F)F
inactive: [1] > 100 µM | [2] > 100 µM | [3] > 100 µM | [15] > 100 µM | [4] > 100 µM | [13] > 100 µM | [5] > 100 µM | [6] > 100 µM | [7] > 100 µM | [9] > 100 µM | [10] > 100 µM | [11] > 100 µM | [14] > 100 µM

CC(C)N(C(=O)C12C3C4C5(C(=O)O)C(C1C35I)C42C(=O)O)C(C)C (centres undefined)
inactive: [2] > 100 µM | [3] > 100 µM | [12] > 100 µM | [15] > 100 µM | [4] > 100 µM | [5] > 100 µM | [6] > 100 µM | [7] > 100 µM | [9] > 100 µM | [10] > 100 µM | [11] 29.1 µM | [14] > 100 µM

CC1(C2CCC3(C)OC3C2)CO1 (centres undefined)
inactive: [1] > 100 µM | [2] > 100 µM | [3] > 100 µM | [12] > 100 µM | [15] > 100 µM | [4] > 100 µM | [13] > 100 µM | [5] > 100 µM | [6] > 100 µM | [7] > 100 µM | [8] > 100 µM | [9] > 100 µM | [10] > 100 µM | [11] > 100 µM | [14] > 100 µM

COc1cccc(/C=N/[N-]C(=S)Nc2ccccc2)c1[O-].O.[Zn+2]
inactive: [1] 87.7 µM | [2] 29.3 µM | [12] 28.8 µM | [15] 73.5 µM | [4] 40.6 µM | [13] 53.7 µM | [5] 28.6 µM | [6] 23.5 µM | [7] > 100 µM | [8] 66.8 µM | [9] 47 µM | [10] > 100 µM | [11] 43.7 µM | [14] 19.7 µM

Clc1ccc(C(n2cc(Br)cn2)n2cc(Br)cn2)cc1
inactive: [1] 11.1 µM | [2] 21.3 µM | [12] 17.8 µM | [15] 15 µM | [4] 13.5 µM | [5] 16.5 µM | [6] 12 µM | [7] 16 µM | [8] 19.9 µM | [9] 16.4 µM | [10] 16.8 µM | [11] > 10 µM | [14] 13.4 µM

CCOP(=S)(OCC)Oc1ccc2c(c1)OC(=O)C1(Cl)C2(C)C2(Cl)C(=O)Oc3cc(OP(=S)(OCC)OCC)ccc3C12C (centres undefined)
inactive: [1] 19.8 µM | [2] 16.9 µM | [3] 12.3 µM | [12] 14.7 µM | [4] 15.5 µM | [13] 19 µM | [5] 20.9 µM | [6] 10.7 µM | [7] 19 µM | [8] 11.1 µM | [9] 6.08 µM | [10] 19.2 µM | [11] 16.1 µM | [14] 12.6 µM

Cc1cc2c(cn1)C(=O)OCC2
inactive: [2] > 100 µM | [3] > 100 µM | [12] > 100 µM | [4] > 100 µM | [13] > 100 µM | [5] > 100 µM | [6] > 100 µM | [7] > 100 µM | [8] > 100 µM | [9] > 100 µM | [10] > 100 µM | [11] > 100 µM | [14] > 100 µM

Cc1ccc(-n2c3nc(=O)n(C)c(=O)c-3nc3ccccc32)c(C)c1
inactive: [1] 27.6 µM | [2] 14.8 µM | [3] 11.8 µM | [12] 6.49 µM | [4] 8.18 µM | [13] 12.6 µM | [5] 13.9 µM | [6] 12 µM | [7] 18.7 µM | [8] 12.8 µM | [9] 15.4 µM | [10] 10.9 µM | [11] 13.3 µM | [14] 2.33 µM

CC12C(=CC(=O)CC1SCCS(=O)(=O)O)C(C#N)=C(N)N2c1ccc(Cl)c(Cl)c1 (centres undefined)
inactive: [1] > 100 µM | [2] > 100 µM | [3] > 100 µM | [12] > 100 µM | [15] 30.6 µM | [4] > 100 µM | [13] > 100 µM | [5] > 100 µM | [6] > 100 µM | [8] > 100 µM | [9] > 100 µM | [10] > 100 µM | [11] > 100 µM | [14] > 100 µM

CN(C)C(=S)/N=c1\ss/c(=N\S(=O)(=O)c2ccccc2)n1N(C)C
inactive: [1] > 100 µM | [2] 37.9 µM | [3] 75 µM | [12] > 100 µM | [4] > 100 µM | [5] > 100 µM | [6] > 100 µM | [8] 62.7 µM | [9] 69.8 µM | [10] > 100 µM | [11] > 100 µM | [14] > 100 µM

O=C(/C=C/c1ccc([N+](=O)[O-])cc1)c1ccc(NCc2nc3ccccc3[nH]2)cc1
inactive: [1] 6.52 µM | [2] 1.57 µM | [12] 1.6 µM | [15] 8.57 µM | [4] 1.78 µM | [13] 2.43 µM | [5] 3.51 µM | [6] 13.3 µM | [7] 13.5 µM | [9] 5.71 µM | [10] 2.96 µM | [11] 3.93 µM | [14] 9.84 µM

COC(=O)[C@H]1C=C[C@@H](C)n2c(=O)c3cc4ccccc4cc3c(=O)n21
inactive: [1] > 100 µM | [2] > 100 µM | [3] > 100 µM | [12] > 100 µM | [15] > 100 µM | [4] > 100 µM | [13] > 100 µM | [5] > 100 µM | [7] > 100 µM | [8] > 100 µM | [9] > 100 µM | [10] > 100 µM | [11] 43.6 µM
